{"source": "patent US20100247659A1", "about": "“PHENYLPHTHALIMIDE ANALOGS FOR TREATING DIABETIC MACULAR EDEMA” (Charlesson, LLC, priority 2007, published 2010)", "key": {"[1]": {"system": "normal BN rats", "test": "Ocular toxicity, ERG recording", "type": "in vivo, rat", "settings": "2 μg/eye intravitreal, weeks 1-4", "description": "Electroretinogram (ERG) recording: Full-field ERGs were recorded by Espion E^2 ERG system (Diagnosys LLC) as described previously (Rohrer, Journal of Neuroscience, 1999, 19: […]) by two protocols: (A) 10 ms flashes of increasing light intensities under scotopic and photopic conditions, and (B) 2 Hz flicker ERG under photopic conditions. BN rats received an intravitreal injection of Compound 4 (2.0 μg/eye, 5 μl/eye of 0.4 mg/ml in BN rat serum) or equal amount of BN rat serum, respectively. At various intervals after injection, the peak a-wave amplitude was measured from baseline to the initial negative-going voltage, whereas peak b-wave amplitude was measured from the trough of the a-wave to the peak of the positive b-wave. Flicker amplitudes were measured from the preceding trough to the peak of the flicker response. Data was expressed as mean±SD and compared between the compound-injected eyes and control eyes by the paired Student's t-test.\nTo test the potential ocular toxicities of Compound 4, normal rats at age of 8 weeks received an intravitreal injection of a high dose of Compound 4, 2 μg/eye (5 μl/eye of 0.4 mg/ml in BN rat serum) or an equal amount of BN rat serum as the vehicle control. Prior to study initiation, and after weeks 1, 2, 3, and 4 following the injection, visual function was evaluated by ERG recording. […]"}, "[2]": {"system": "normal BN rats", "test": "Ocular toxicity, histological analysis of the retina", "type": "in vivo, rat", "settings": "2 μg/eye intravitreal, 4 weeks", "description": "Histological analysis of the retina: To test the potential ocular toxicity of Compound 4, 8 week old normal BN rats received an intravitreal injection of Compound 4 (2.0 μg/eye, 5 μl/eye of 0.4 mg/ml in BN rat serum) or equal amount of BN rat serum, respectively. At various intervals after injection, the animals were sacrificed. The eyes then were removed, fixed in 4% formaldehyde, embedded in paraffin, and cut into 6-μm sections containing the whole retina. Paraffin-embedded sections were stained with hematoxylin-eosin (HE) and were examined.\nPossible toxicities of CLT-033 were also examined using pathohistological examination 4 weeks after the drug administration. Retinal cross sections stained with H&E were examined under a light microscope.\nEight weeks old BN rats were received an intravitreal injection of Compound 4 (2.0 μg/eye, 5 μl/eye 0.4 mg/ml in BN rat serum) or equal amount of BN rat serum respectively (n=6). ERG was performed prior to study initiation and 1, 2, 3 and 4 weeks after the injection. Data shown no dramatic change in the a-wave and b-wave amplitudes in Compound 4-injected rats compared to vehicle-injected rats (FIG. 18A-18C). The animals were sacrificed 4 weeks after injection. The eye sections were observed under microscope with HE staining."}, "[3]": {"test": "Drying at elevated temperature", "type": "physicochemical", "settings": "70° C., 89 h", "description": "Synthesis of Compound 4 was successfully carried out via catalytic hydrogenation and via transfer hydrogenation. Catalytic hydrogenation required a longer reaction time (24 h) under 45-50 psi. This method requires specialized equipment. […] Scale-up of this reaction gave 99.2% pure material in 91% yield.\nA 12 L, 3-neck round bottom flask, equipped appropriately and under nitrogen, was charged with a slurry of 10% palladium on carbon (24.5 g, 10% (w/w)) in ethanol (200 proof, 1 L). To this slurry was charged (2,6-diisopropylphenyl)-5-nitro-1H-isoindole-1,3-dione (245.0 g, 0.70 mol) followed by ethanol (200 proof, 2.92 L, 3.92 L total, 16 mL/g) and triethylamine (311.7 g, 3.08 mol, 4.40 eq). Formic acid (135.8 g, 2.95 mol, 4.22 eq) was added slowly over 25 min. The slurry was heated to reflux and the reaction progress was monitored by HPLC. At 3.5 h, the mixture was filtered through a Celite bed to remove the catalyst. The filter bed was rinsed with ethanol (200 proof, 4×175 mL). The filtrate was then clarified through Whatman filter paper to remove any particulates. Ethanol (200 proof, 2×150 mL) was used as a rinse. To the solution was added water (deionized, 3.92 L), over 45 min. The resulting slurry was stirred at ambient temperature overnight. The following day, the slurry was cooled to 0-10° C. for 2 h. […]"}, "[4]": {"system": "STZ-diabetic rats", "settings": "cited from earlier work"}}, "data": [{"compound": "CC(C)c1cccc(C(C)C)c1N1C(=O)c2ccc(N)cc2C1=O", "note": "[Compound 4]", "values": [{"measurement": "ERG a-wave and b-wave amplitudes", "setting": "[1]", "value": "no detectable change in the a-wave and b-wave amplitudes"}, {"measurement": "retinal morphology, H&E sections", "setting": "[2]", "value": "No apparent morphological change or immunoresponse"}, {"measurement": "stability on drying", "setting": "[3]", "value": "does not cause decomposition"}]}, {"compound": "O=C1CCC(N2C(=O)c3ccccc3C2=O)C(=O)N1", "note": "(centres unmarked) [thalidomide]", "values": [{"measurement": "VEGF in ocular fluid", "setting": "[4]", "value": "blocked the increase of VEGF in ocular fluid"}, {"measurement": "thickening of retinal capillary basement membrane", "setting": "[4]", "value": "inhibited the thickening of retinal capillary basement membrane"}]}]}
